Results as given in patent publication US10435371B2, “Multifunctional aminoquinoline therapeutic agent” (LOHOCLA RESEARCH CORPORATION, priority 2014, dated 2019).

Experiments:
[1] = target: T1, CB1 Receptor (Homo sapiens, UniProt P21554); assay: PDSP radioligand displacement, [^3H]CP55940; design: species or system rat; conditions: read-out: Binding constant Ki, CB1 Receptor
T1 construct: expressed in transfected cells

[2] = target: GABA site, GABA-A Receptor; assay: PDSP radioligand displacement, [^3H]Muscimol; design: species or system rat; conditions: read-out: Binding constant Ki, GABA site, GABA-A Receptor
[3] = target: CaV1.2 (Voltage sensitive Ca** channel (L-type)) (Homo sapiens, UniProt Q13936); assay: PDSP radioligand binding; conditions: Table 3, the 6th table r22c0; read-out: Ki, CaV1.2 (lack of affinity)
Sequence of CaV1.2 (Voltage sensitive Ca** channel (L-type)) (Q13936 whole entry): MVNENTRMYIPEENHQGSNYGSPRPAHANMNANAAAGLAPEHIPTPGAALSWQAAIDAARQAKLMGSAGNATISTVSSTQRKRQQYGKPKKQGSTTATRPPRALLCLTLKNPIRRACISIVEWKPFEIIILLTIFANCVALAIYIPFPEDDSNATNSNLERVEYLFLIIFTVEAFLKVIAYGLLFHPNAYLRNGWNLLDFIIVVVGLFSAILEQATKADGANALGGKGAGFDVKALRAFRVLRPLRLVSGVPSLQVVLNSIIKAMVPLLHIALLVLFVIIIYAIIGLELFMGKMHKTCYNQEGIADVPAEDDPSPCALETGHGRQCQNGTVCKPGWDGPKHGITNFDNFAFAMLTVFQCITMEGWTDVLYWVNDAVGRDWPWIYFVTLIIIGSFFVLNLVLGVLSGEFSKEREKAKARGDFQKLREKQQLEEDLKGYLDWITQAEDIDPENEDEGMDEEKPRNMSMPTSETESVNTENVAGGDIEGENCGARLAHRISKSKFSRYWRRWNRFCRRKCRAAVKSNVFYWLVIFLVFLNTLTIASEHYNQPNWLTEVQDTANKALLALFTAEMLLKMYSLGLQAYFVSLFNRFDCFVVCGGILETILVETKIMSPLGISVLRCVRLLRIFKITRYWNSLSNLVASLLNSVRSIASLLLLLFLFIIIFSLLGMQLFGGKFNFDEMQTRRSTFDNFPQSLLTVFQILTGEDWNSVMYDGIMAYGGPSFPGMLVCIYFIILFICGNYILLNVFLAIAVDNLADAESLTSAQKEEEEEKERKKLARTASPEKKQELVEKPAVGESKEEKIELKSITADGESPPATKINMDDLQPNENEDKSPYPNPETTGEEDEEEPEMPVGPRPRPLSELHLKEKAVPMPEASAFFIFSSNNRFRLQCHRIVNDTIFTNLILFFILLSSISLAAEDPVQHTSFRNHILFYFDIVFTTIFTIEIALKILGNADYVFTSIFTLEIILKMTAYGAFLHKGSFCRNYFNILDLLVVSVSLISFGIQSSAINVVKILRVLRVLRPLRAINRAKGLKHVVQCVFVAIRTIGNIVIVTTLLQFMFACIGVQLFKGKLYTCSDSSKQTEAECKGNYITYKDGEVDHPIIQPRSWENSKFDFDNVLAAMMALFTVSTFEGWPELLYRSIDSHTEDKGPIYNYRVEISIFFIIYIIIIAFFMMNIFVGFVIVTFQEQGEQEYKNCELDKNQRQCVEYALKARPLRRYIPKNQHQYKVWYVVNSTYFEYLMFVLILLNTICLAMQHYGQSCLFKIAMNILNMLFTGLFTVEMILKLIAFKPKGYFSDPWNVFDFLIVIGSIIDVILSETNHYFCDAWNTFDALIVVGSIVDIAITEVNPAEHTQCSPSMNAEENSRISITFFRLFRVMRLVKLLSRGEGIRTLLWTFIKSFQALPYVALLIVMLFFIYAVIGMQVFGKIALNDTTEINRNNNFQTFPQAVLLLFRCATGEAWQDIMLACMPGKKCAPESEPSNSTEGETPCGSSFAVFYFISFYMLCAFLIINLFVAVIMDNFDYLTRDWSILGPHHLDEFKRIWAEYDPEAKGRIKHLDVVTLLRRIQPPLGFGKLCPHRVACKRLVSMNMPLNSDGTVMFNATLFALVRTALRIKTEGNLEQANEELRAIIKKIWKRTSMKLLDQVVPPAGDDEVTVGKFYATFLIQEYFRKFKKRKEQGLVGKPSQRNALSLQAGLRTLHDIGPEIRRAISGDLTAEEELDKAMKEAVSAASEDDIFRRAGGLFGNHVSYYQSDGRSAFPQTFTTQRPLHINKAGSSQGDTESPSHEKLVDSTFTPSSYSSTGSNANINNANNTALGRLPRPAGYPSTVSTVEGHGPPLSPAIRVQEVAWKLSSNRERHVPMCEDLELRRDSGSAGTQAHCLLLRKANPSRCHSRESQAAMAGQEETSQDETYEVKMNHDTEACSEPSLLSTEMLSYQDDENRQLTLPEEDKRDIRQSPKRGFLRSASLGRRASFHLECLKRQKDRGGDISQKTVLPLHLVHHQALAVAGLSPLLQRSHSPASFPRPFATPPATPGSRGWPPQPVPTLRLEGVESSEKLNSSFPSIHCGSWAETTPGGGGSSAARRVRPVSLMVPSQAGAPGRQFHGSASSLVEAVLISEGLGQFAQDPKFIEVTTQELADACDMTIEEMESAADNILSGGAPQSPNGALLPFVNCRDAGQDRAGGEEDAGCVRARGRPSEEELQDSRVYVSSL

[4] = target: EP2 (Prostaglandin Rs) (Homo sapiens, UniProt P43116); assay: PDSP radioligand binding; conditions: Table 3, the 6th table r12c1; read-out: Ki, EP2 (lack of affinity)
[5] = tested on: rats treated with streptozotocin; assay: Reversal of streptozotocin-induced (diabetic) neuropathic pain (von Frey); type: in vivo, rat
[6] = tested on: rats treated with Complete Freund's Adjuvant; assay: Naltrindole reversal of the effect of DCUKA on CFA-induced neuropathic pain; type: in vivo, rat; conditions: DCUKA 50 mg/kg oral plus intraplantar saline, 2 days after CFA; FIG. 12
Procedure: Rats were tested for baseline mechanical pain threshold (von Frey test) and given an intraplantar injection of Complete Freunds Adjuvant (CFA) in the left hind paw.

[7] = tested on: rats treated with Complete Freund's Adjuvant; assay: Prevention of CFA-induced neuropathic pain; type: in vivo, rat; conditions: 50 mg/kg oral, four treatments at 12-hour intervals starting after CFA injection; FIG. 13
Procedure: (§1) This example illustrates that treatment of animals with DCUKA following insult, but prior to development of neuropathic pain, can prevent the development of the pain. Rats were treated with cisplatin or CFA, and mechanical pain threshold was measured, as described under Example 5.
Prevention of CFA-Induced Neuropathic Pain by DCUKA. After baseline measurement of the mechanical pain threshold, rats were treated with CFA as described earlier. Following the CFA injection, rats were given vehicle (canola oil/gelatin) (n=7) or 50 mg/kg DCUKA (n=7) orally by intragastric gavage. Rats then received three more treatments with vehicle or DCUKA at 12-hour intervals. At 60 hours after CFA treatment, the mechanical pain threshold was again tested.

[8] = tested on: rats treated with cisplatin; assay: Prevention of cisplatin-induced neuropathic pain; type: in vivo, rat; conditions: 50 mg/kg intragastric twice daily for 14 days starting 1 h after first cisplatin injection; FIG. 14
Procedure: as §1
Prevention of Cisplatin-Induced Neuropathic Pain by DCUKA. One day after baseline measurement of the mechanical pain threshold, rats were injected i.p. with cisplatin. Cisplatin injections were again given on days 4, 8, and 12. Starting one hour after the first cisplatin injection, rats were given 50 mg/kg DCUKA or vehicle via intragastric gavage twice daily for 14 days. After the last treatment (day 15) the mechanical pain threshold was again tested. The pain threshold was then tested once weekly for 4 weeks, with no further treatments.

[9] = tested on: rats treated with Complete Freund's Adjuvant; assay: Combination with morphine, CFA-induced pain, mechanical pain threshold; type: in vivo, rat; conditions: FIG. 15 Panel A
[10] = tested on: rats treated with streptozotocin; assay: Combination with aspirin, STZ-induced neuropathic pain (von Frey); type: in vivo, rat; conditions: FIG. 16
Procedure: After administration of streptozotocin (STZ) as described in Example 5, rats were tested for allodynia using a von Frey apparatus. Sixty minutes prior to testing, rats were divided into four groups. Group 1 received vehicle; group 2 received DCUKA; group 3 received aspirin; and group 4 received a combination of DCUKA and aspirin.

[11] = target: 5-HT1A (Serotonin Rs) (Homo sapiens, UniProt P08908); assay: PDSP radioligand binding
[12] = target: 5-HT3 (Serotonin Rs) (Homo sapiens, UniProt P46098); assay: PDSP radioligand binding
Sequence of 5-HT3 (Serotonin Rs) (P46098 24-478): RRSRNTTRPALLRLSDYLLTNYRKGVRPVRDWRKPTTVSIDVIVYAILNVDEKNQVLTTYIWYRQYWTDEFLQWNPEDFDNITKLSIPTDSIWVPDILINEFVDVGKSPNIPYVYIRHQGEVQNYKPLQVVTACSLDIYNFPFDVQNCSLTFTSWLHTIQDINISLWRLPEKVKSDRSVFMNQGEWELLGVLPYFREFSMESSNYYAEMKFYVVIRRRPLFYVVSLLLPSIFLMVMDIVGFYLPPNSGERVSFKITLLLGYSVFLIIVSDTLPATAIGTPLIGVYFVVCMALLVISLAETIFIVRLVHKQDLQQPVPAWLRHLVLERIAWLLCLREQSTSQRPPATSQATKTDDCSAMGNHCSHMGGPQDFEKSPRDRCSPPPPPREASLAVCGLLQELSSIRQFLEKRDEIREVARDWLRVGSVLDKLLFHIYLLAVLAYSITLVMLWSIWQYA

[13] = target: β1 (Adrenergic Rs (beta adrenergic)) (Homo sapiens, UniProt P08588); assay: PDSP radioligand binding
Sequence of β1 (Adrenergic Rs (beta adrenergic)) (P08588 whole entry): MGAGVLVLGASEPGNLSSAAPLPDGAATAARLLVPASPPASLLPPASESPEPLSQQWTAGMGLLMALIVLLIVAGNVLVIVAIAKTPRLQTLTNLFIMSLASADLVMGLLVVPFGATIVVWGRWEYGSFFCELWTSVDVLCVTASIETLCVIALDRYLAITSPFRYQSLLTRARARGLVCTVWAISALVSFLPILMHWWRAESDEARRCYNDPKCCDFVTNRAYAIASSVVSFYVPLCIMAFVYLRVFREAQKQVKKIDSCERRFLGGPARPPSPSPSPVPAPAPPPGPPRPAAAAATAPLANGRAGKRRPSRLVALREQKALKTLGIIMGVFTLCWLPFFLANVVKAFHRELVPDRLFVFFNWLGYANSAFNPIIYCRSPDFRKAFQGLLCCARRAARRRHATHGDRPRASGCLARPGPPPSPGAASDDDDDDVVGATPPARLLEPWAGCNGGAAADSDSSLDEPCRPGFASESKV

[14] = target: β2 (Adrenergic Rs (beta adrenergic)) (Homo sapiens, UniProt P07550); assay: PDSP radioligand binding
Sequence of β2 (Adrenergic Rs (beta adrenergic)) (P07550 whole entry): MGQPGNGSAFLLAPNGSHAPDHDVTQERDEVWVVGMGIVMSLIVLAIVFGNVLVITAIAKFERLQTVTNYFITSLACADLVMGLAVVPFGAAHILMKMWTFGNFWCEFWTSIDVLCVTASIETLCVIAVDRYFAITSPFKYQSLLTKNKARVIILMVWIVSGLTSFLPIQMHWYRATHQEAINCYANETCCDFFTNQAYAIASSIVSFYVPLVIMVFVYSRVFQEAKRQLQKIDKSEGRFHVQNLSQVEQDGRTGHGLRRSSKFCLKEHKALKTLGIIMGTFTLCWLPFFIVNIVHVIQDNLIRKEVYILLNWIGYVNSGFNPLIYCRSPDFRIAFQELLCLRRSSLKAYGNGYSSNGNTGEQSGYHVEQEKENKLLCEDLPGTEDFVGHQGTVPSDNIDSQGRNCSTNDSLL

[15] = target: D1 (Dopamine Rs) (Homo sapiens, UniProt P21728); assay: PDSP radioligand binding
Sequence of D1 (Dopamine Rs) (P21728 whole entry): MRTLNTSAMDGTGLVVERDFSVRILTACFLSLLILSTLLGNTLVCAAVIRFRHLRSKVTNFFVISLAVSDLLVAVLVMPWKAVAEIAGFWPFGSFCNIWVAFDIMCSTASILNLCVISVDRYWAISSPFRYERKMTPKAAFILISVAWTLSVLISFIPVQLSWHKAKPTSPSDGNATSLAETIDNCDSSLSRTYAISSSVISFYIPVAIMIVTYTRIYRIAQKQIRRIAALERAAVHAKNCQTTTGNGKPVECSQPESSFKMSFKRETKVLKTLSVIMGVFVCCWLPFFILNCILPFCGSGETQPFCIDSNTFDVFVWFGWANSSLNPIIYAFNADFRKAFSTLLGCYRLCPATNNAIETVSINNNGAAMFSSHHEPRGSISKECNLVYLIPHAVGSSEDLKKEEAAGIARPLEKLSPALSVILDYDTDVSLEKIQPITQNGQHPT

[16] = target: D2 (Dopamine Rs) (Homo sapiens, UniProt P14416); assay: PDSP radioligand binding
[17] = target: M2 (Muscarinic Cholinergic Rs) (Homo sapiens, UniProt P08172); assay: PDSP radioligand binding
[18] = target: Serotonin Transporter (Homo sapiens, UniProt P31645); assay: PDSP radioligand binding
Sequence of Serotonin Transporter (P31645 whole entry): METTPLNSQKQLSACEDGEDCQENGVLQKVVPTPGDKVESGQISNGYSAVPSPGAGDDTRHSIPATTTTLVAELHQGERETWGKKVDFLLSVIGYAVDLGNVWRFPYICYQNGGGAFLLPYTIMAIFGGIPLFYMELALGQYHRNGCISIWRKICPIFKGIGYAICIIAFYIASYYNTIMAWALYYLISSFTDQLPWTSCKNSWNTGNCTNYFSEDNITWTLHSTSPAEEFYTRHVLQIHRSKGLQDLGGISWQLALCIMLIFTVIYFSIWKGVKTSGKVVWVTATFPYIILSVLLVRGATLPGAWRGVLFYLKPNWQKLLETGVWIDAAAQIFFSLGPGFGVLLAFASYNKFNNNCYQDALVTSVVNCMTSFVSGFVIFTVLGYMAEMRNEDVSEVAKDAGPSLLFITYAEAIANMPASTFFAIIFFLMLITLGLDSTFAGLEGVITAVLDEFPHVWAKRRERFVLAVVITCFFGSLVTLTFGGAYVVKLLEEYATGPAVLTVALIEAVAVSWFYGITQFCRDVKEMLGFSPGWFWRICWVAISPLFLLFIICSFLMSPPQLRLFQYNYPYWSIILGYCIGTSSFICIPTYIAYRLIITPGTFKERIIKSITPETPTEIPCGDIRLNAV

[19] = target: V1A (Vasopressin) (Homo sapiens, UniProt P37288); assay: PDSP radioligand binding
Sequence of V1A (Vasopressin) (P37288 whole entry): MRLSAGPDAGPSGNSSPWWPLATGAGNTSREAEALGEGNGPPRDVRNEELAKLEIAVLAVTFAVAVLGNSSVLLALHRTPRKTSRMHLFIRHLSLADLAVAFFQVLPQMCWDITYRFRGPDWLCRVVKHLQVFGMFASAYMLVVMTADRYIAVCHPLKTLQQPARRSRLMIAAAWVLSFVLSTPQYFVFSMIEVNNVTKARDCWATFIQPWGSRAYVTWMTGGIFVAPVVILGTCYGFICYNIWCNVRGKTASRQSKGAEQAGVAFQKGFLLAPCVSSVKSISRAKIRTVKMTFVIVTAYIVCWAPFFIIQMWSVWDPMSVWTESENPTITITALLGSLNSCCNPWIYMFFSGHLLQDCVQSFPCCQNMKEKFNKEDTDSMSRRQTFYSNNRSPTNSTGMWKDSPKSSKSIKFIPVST

[20] = target: MOR (μ opiate receptor) (Homo sapiens, UniProt P35372); assay: PDSP radioligand binding, [^3H]DAMGO

## O=C(O)c1cc(NC(=O)N(c2ccccc2)c2ccccc2)c2c(Cl)cc(Cl)cc2n1 [DCUKA, 5,7-dichloro-4-(3,3-diphenylureido)quinoline-2-carboxylic acid]
[1]
  Ki: 11 ± 2.7 µM
[2]
  Ki: 6.6 ± 1.8 µM
[3]
  Ki: > 10 µM
[4]
  Ki: > 10 µM
[5]; 14 days after STZ, 40 or 50 mg/kg oral, 90 minutes, three experiments combined, FIG. 10
  Mechanical pain threshold, ratio to baseline: reversed to the baseline level
[5]; Fisher's LSD, p<0.0001, FIG. 10
  Difference between 50 mg/kg DCUKA and 0 mg/kg DCUKA in ratio of mechanical pain threshold to pre-STZ threshold: 0.60
[5]; oral, 90 minutes, meta-analysis of four experiments, FIG. 11
  Doses that reversed the effect of STZ on pain threshold back to baseline: ≥ 30 mg/kg
[6]
  Mechanical pain threshold: increased the pain threshold back to baseline level
[7]
  Mechanical pain threshold at 60 hours after CFA, ratio to baseline: the threshold was not reduced
[8]
  Mechanical pain threshold (paw withdrawal threshold) over days: no statistically significant decrease of pain threshold compared to the pre-cisplatin baseline
[9]
  Analgesia, each agent alone at the dose used for the combination: ineffective in producing analgesia
[9]; doses ineffective alone, injected 30 min before test, 48 h after CFA
  Reversal of CFA-induced pain, combination of DCUKA and morphine: complete reversal of inflammation-induced chronic pain
[10]; DCUKA 12.5 mg/kg plus aspirin 25 mg/kg
  Effect on allodynia, combination of DCUKA and aspirin: completely reverse the hyper-responsiveness
[10]; DCUKA 12.5 mg/kg, 60 min before test
  Effect on allodynia, alone: do not have any significant effect on allodynia
[11]
  Ki: > 10 µM
[12]
  Ki: > 10 µM
[13]
  Ki: > 10 µM
[14]
  Ki: > 10 µM
[15]
  Ki: > 10 µM
[16]
  Ki: > 10 µM
[17]
  Ki: > 10 µM
[18]
  Ki: > 10 µM
[19]
  Ki: > 10 µM
[20]
  Ki: > 10 µM
